# What was measured:
# HCC78 cells [1] = assay: Cell viability (MTS) assay, HCC78; format: cell-based, human; settings: Homo sapiens, 72 hour exposure, read-out: IC50 HCC78 cell growth
# Protocol: (§1) The parental Ba/F3 cell line was cultured in RPMI 1640 medium with 10% FBS, L-glutamine, penicillin/streptomycin and 15% WEHI-conditioned media. Ba/F3 cell lines were maintained at densities of 0.5×10^6 to 1.5×10^6 per ml of media. FIG-ROS and SLC-ROS Ba/F3 lines were created by infecting the parental Ba/F3 with retrovirus expressing either human FIG-ROS-S (indicated FIG-ROS herein) or SLC-ROS-S (indicated SLC-ROS herein). Stable transfectant lines were sorted for GFP expression on a FACS Aria® flow cytometer. Cells were counted daily using Guava ViaCount® reagent and Guava Personal Cell Analysis® flow cytometer. […] Early passage NIH3T3 cells were infected with retrovirus expressing either FIG-ROS or SLC-ROS and sorted for GFP expression as described above for Ba/F3 cells. HCC78 cells were cultured in RPMI 1640 medium with 10% FBS, L-glutamine, and penicillin/streptomycin. This media is referred to as RPMI-10% FBS herein.
# SLC-ROS = SLC-ROS (Homo sapiens, UniProt P08922); assay: Immunoblot of NIH3T3 SLC-ROS lysates; format: cell-based; set-up: SLC34A2 N-terminal portion, fusion partner; expressed in transfected cells; host or cells: Ba/F3 (A15) and NIH3T3 (A25), retroviral pMIG; the other entry of the earlier key: SLC34A2 (O95436, Sodium-dependent phosphate transport protein 2B); settings: NIH3T3 SLC-ROS cells, 1 hour, at lower doses than crizotinib
# Chain of SLC-ROS (P08922 with tags, fused parts or gaps): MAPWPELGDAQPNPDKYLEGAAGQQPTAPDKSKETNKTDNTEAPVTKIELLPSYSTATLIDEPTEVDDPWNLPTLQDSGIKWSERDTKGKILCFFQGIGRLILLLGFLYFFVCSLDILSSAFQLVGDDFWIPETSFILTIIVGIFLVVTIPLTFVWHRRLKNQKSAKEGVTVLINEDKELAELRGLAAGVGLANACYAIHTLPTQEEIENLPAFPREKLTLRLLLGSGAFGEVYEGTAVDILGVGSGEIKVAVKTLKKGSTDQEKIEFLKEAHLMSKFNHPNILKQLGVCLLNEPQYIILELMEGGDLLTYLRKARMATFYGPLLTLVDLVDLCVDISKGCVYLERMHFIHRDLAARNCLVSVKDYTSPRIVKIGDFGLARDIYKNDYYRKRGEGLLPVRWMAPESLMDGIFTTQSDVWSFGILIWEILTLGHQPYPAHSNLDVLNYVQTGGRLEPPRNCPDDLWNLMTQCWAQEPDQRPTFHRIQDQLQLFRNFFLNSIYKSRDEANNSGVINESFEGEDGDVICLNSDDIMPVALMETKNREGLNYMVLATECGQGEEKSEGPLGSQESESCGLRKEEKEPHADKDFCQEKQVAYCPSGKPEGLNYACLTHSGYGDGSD
# Protocol: as §1
# HCC78 cells [2] = assay: HCC78 colony formation; format: cell-based, human; settings: 10 days, FIG. 1F
# Source text: FIG. 1F bottom panel is a bar graph depicting the number of colonies observed on the plates from FIG. 1F top panel. Where indicated, **=p<0.01 and ***=p<0.001 by Student's t-test.
# Ba/F3 FIG-ROS cells = biological target: T1, Ba/F3 FIG-ROS cells (Homo sapiens, UniProt P08922); assay: Apoptosis induction (Annexin V / 7-AAD), Ba/F3 FIG-ROS; format: cell-based; settings: 15 nM, 48 hours
# T1 construct: fused on or other part: GFP is co-expressed from an IRES in pMIG and is not fused; Q9HD26 (Golgi-associated PDZ and coiled-coil motif-containing protein)
# T1 sequence (P08922 whole entry, change not shown, the tested form may be a part): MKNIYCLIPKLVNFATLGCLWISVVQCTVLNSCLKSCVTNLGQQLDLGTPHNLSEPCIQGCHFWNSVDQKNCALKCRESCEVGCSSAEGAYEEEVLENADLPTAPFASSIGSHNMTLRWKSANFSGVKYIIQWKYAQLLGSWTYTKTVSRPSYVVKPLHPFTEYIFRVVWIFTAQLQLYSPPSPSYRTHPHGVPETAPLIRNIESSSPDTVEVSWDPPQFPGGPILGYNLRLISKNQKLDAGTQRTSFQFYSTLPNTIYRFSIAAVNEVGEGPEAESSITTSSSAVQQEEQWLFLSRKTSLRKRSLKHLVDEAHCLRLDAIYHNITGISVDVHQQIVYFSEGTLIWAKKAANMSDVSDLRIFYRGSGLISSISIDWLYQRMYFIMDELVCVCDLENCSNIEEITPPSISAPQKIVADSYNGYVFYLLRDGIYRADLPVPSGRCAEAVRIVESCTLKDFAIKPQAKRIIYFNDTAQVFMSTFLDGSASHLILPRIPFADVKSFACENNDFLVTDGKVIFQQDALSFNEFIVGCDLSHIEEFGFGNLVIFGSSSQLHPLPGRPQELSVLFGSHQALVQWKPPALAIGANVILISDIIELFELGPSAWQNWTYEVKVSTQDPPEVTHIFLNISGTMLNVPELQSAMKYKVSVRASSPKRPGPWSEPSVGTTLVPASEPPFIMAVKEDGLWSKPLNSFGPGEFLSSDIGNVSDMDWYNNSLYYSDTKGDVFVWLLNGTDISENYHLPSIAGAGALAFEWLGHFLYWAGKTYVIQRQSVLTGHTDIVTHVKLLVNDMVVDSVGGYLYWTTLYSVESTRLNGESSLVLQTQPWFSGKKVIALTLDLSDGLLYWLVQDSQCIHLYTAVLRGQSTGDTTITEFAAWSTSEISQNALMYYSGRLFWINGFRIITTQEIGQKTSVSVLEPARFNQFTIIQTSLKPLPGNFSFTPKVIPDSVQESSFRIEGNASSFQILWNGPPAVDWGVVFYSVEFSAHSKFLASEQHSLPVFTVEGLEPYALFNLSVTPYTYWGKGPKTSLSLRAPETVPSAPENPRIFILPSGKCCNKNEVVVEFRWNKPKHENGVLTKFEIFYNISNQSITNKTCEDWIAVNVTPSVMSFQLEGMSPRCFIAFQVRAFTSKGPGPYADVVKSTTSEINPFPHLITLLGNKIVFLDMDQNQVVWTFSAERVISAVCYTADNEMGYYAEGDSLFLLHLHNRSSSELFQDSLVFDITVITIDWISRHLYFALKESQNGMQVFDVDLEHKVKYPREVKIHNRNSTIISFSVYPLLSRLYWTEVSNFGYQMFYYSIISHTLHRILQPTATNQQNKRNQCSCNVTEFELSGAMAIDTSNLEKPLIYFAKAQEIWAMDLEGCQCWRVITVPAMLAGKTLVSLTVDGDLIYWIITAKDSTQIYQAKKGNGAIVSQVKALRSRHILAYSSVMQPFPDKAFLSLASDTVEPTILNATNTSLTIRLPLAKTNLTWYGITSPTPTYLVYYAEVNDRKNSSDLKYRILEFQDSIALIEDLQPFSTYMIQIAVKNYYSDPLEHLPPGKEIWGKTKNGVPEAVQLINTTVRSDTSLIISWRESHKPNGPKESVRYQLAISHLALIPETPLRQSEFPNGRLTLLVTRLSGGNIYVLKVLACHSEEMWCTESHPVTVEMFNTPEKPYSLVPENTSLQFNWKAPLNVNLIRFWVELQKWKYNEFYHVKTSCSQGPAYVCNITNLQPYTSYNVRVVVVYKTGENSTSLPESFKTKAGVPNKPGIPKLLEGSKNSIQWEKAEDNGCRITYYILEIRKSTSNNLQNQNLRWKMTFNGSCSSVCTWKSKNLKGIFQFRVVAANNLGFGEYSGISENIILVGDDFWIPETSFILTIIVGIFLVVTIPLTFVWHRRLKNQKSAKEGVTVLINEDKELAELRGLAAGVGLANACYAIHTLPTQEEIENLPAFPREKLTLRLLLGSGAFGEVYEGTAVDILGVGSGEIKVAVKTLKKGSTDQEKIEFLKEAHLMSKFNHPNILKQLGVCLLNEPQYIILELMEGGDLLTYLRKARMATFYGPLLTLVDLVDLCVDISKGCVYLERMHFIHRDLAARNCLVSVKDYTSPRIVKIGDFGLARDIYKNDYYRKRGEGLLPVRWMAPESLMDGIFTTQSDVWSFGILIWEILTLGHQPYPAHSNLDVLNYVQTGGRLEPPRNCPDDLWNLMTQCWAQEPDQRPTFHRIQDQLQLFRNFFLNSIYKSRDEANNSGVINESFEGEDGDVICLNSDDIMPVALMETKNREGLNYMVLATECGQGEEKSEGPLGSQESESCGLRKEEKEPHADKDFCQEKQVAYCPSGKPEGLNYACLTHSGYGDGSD
# Protocol: FIG. 5A is a set of three bar graphs depicting the induction of apoptosis in Ba/F3 FIG-ROS, Ba/F3 SLC-ROS and Ba/F3 ALK F1174L cells after 48 hours of treatment with the indicated doses of the indicated compounds. The number of cells that were Annexin V and 7-AAD positive after inhibitor treatment was normalized to number of cells staining positive with these markers with vehicle treatment (basal). A minimum of 2000 cells were counted per condition. Rate of apoptosis is shown as fold over basal. Basal apoptosis in Ba/F3 FIG-ROS, Ba/F3 SLC-ROS and Ba/F3 ALK F1174 cells was 3.6%, 2.8% and 1.2% respectively.
# HCC4011 cells = assay: Cell viability assay, HCC4011; format: cell-based, human; settings: HCC4011 cells (activated EGFR), FIG. 6B
# Protocol: IC50 was determined from non-linear regression curve fit analysis of the dose response curves.
# FIG-ROS tumors = assay: In vivo treatment of mice bearing subcutaneous FIG-ROS cholangiocarcinoma tumors; settings: 25 mg/kg oral gavage once daily, 9 days, immunodeficient mice; foretinib p<0.0001 for Lines 4 and 6
# Protocol: Mouse chorangiocarcinoma cell lines expressing either FIG-ROS or shPten were subcutaneously injected into 11 week old female immune-deficient mice. […] Caliper measurements were taken at the time of treatment initiation and 24 hrs after administration of the last dose. Data in waterfall plots is calculated as follows: ((tumor volume Tend/tumor volume T0)−1). Caliper measurements of tumors were taken at T0 and Tend. Tumor volume is calculated as: 0.5*L*Ŵ2(L>W).
# Tumors were formed by subcutaneous injection of the murine cholangiocarcinoma cell lines described above in the flanks of immunodeficient mice. […] Caliper measurements were taken at the time of treatment initiation (Ti) and 24 h after administration of the last dose (Tend).
# [3] = biological target: Ba/F3 FIG-ROS G1971E cells (Homo sapiens, UniProt P08922, G1971E, cells depend on it); assay: Cell viability assay, Ba/F3 FIG-ROS G1971E; format: cell-based; settings: Table 3, Ba/F3 FIG-ROS G1971E; nM; read-out: IC50 (the source's name)
# Chain of Ba/F3 FIG-ROS G1971E cells (P08922 whole entry G1971E): as the sequence (P08922 whole entry, change not shown, the tested form may be a part) above, with G1971E counted along it
# Protocol: Cell lines were distributed in 96-well plates and incubated with the indicated concentrations of inhibitor for 72 hours. […] Ba/F3 cell lines were plated at 4×10^3 cells/well. HCC78 and mCC cell lines were plated at 1.5×10^3 cells/well. All cell types were seeded in a final volume of 80 microliters. A 20 microliter volume of five-fold concentrated inhibitor media was added. Cell proliferation was measured using a […] viability assay (CellTiter96 Aqueous One® Solution; Promega). A BioTek Synergy 2® plate reader was used to read the absorbance at 490 nm at 30 minutes and 1 hour after addition of MTS. To facilitate comparison between experiments, the raw MTS absorbance of vehicle (0.1% DMSO) treated cells was set to 1 and absorbance from inhibitor treated wells was normalized to the vehicle treated value. […] Data were normalized using Microsoft Excel® and further non-linear regression curve fit analysis of the normalized data for determination of IC50 was performed using Graphpad Prism® software.
# The FIG-ROS-S fusion gene was synthesized using the GeneArt® service. FIG-ROS-S is denoted as FIG-ROS herein.
# [4] = tested on: FIG-ROS cholangiocarcinoma tumor cells; assay: Anchorage-independent colony formation in soft agar, FIG-ROS cholangiocarcinoma cells; format: cell-based, murine; settings: dose dependent
# Source text: […]. The values indicate the mean and the error bars indicate the standard error of the mean of 3 independent wells.
# . The inhibition was dose dependent (FIG. 2B). […].
smiles,measurement,setting,value
"COc1cc2c(Oc3ccc(NC(=O)C4(C(=O)Nc5ccc(F)cc5)CC4)cc3F)ccnc2cc1OCCCN1CCOCC1 [foretinib, N1′-[3-fluoro-4-[[6-methoxy-7-(3-morpholinopropoxy)-4-quinolyl]oxy]phenyl]-N1-(4-fluorophenyl)cyclopropane-1,1-dicarboxamide]",IC50,HCC78 cells [1],425 nM
same,SLC-ROS phosphorylation,SLC-ROS,strongly suppressed
same,HCC78 colony formation,HCC78 cells [2],more potently inhibited by foretinib than crizotinib
same,apoptosis induction,Ba/F3 FIG-ROS cells,induced apoptosis
same,sensitivity of cell growth,HCC4011 cells,relatively insensitive
same,FIG-ROS tumor volume,FIG-ROS tumors,dramatically and significantly reduced
same,GI50,[3],8.69 nM
same,anchorage-independent colonies in soft agar,[4],inhibited
